Experimental data reported in patent publication US7790781B2 (priority 2005, dated 2010).

Legend:
[1] = Water solubility of acidic compound at 20° C.
Excerpt: This object is achieved pursuant to the invention by a condensation-crosslinkable dental material having a composition containing at least one alkoxysilyl-functional and/or hydroxysilyl-functional polyether a), at least one catalyst b), and optionally water c), with the at least one catalyst b) being selected from the group consisting of bases, salts, and any combinations thereof.

[2] = pKa of acidic compound in water
Excerpt: If polyfunctional acids are used, it is sufficient for at least one of the pKa values, preferably the pKa1 of the polyfunctional acid used, to lie within the aforementioned ranges.

[3] = Polyether solubility of acidic compound (20° C.); details: organic solvent or mixture

Compound: Cc1ccc(S(=O)(=O)O)cc1 [p-toluenesulfonic acid]
- Water solubility [1]: about 750 g/l

Compound: O=C1CC(=O)NC(=O)N1 [barbituric acid]
- solubility ([1]; 20 °C, water): 142 mg/mL
- pKa [2]: 4.01
- solubility [3]: ≤ 2 mg/mL
